In US7892581B2, “Compositions and methods for protection of harvested fruits from decay” (Gavish-Galilee Bio Applications Ltd., priority 2005, dated 2011):

Assay: Release profile of marker components into vapor phase (headspace GC)
Type: physicochemical
Settings: for Time to saturation of the vapor phase: release from essential oil on filter paper, sealed vial, 20° C.; for Concentration in the vapor phase: Thyme oil, within 3 hours
Procedure: The profile of release of essential oils was determined by analyses using Gas Chromatograph HP6890 Series GC-System (FID) coupled with HP 7694 Headspace sampler, equipped with column HP-5 Trace Analysis (5% PH Me Siloxane) of volume 30 m×0.25 mm×0.25 μm, at ambient temperature. The following model system was developed and calibrated: filter paper (Whatman No. 1) strips absorbed with appropriate volume of essential oil to achieve desired concentrations, i.e., similar to those used for in-vivo experiments, were placed in 20 ml and 100 ml vials. The vials were hermetically sealed and marked to indicate the time course of vaporization (1, 3, 14 and 24 hours). These vials were kept in the dark at a temperature of 20° C. until their gas chromatography analyses.
GC FID analysis was applied to determine the release profile into the vapor phase of marker individual components during a 24 hour period. […] For all markers tested, saturation was achieved within 3 hours.

Row | Compound | Time to saturation of the vapor phase [h] | Concentration in the vapor phase [%]
1 | C=CCN=C=S [allyl isothiocyanate] | ~1.5 | 
2 | CC(C)=CCCC(C)CC=O (stereo not shown) [citronellal] | ~3.0 | 
3 | Cc1ccc(C(C)C)cc1 [p-cymene] |  | ~56
4 | Cc1ccc(C(C)C)c(O)c1 [thymol] |  | ~1.2
